Like-named read-outs stand apart in the source and are kept apart here.
Key:
[1] = target: GST-RIPK2 fusion protein (human RIPK2 amino acids 1-310) (Homo sapiens (Human), UniProt O43353); experiment: RIPK2 binding competition assay (TR-FRET, Tracer 199)
[2] = tested on: NF-κB pathway (SEAP) in THP1-Dual cells; experiment: THP-1 Dual cell SEAP assay (L18-MDP stimulated); format: cell-based; conditions: Homo sapiens, THP1-Dual, read-out: NFkB THP1 IC50
[3] = read-out: RIPK2 IC50, RIPK2 binding competition assay

Chain of GST-RIPK2 fusion protein (human RIPK2 amino acids 1-310) (O43353 1-310): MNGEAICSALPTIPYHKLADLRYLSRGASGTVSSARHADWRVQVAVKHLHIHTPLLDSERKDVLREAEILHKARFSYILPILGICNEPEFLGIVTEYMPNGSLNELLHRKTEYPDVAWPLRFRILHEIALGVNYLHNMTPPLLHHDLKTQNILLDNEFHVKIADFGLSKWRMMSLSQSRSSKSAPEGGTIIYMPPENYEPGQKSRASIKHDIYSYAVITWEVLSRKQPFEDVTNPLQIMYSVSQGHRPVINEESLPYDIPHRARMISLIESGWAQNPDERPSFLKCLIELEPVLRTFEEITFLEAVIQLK

`COc1cc2ncc(-c3cc(F)c(N)c(C)c3F)n2cc1S(=O)(=O)C(C)(C)C` [Example 111, 4-(6-(tert-butylsulfonyl)-7-methoxyimidazo[1,2-a]pyridin-3-yl)-3,6-difluoro-2-methylaniline] was tested, and the IC50 [1] was 1 to 2.5 nM and the IC50 [2] was 50 to 250 nM.
`CCOc1nc(N)c(F)cc1-c1cnc2cc(OC)c(S(=O)(=O)C(C)(C)C)cn12` [Example 112, 5-(6-(tert-butylsulfonyl)-7-methoxyimidazo[1,2-a]pyridin-3-yl)-6-ethoxy-3-fluoropyridin-2-amine] showed an IC50 [1] of 2.5 to 20 nM and an IC50 [2] of over 1000 nM.
Compound `COc1cc2ncc(-c3cc(F)c(N)nc3OC(C)C)n2cc1S(=O)(=O)C(C)(C)C` [Example 113, 5-(6-(tert-butylsulfonyl)-7-methoxyimidazo[1,2-a]pyridin-3-yl)-3-fluoro-6-isopropoxypyridin-2-amine] has an IC50 [1, 3] of over 20 nM and an IC50 [2] of over 1000 nM.
With `CCOc1cn2ncc(-c3cc(Cl)c(N)nc3F)c2cc1S(=O)(=O)C(C)(C)C` [Example 114, 5-(5-(tert-butylsulfonyl)-6-ethoxypyrazolo[1,5-a]pyridin-3-yl)-3-chloro-6-fluoropyridin-2-amine] the IC50 [1] was 1 to 2.5 nM and the IC50 [2] was 50 to 250 nM.
In the case of `CCOc1cn2ncc(-c3cc(F)c(N)nc3F)c2cc1S(=O)(=O)C(C)(C)C` [Example 115, 5-(5-(tert-butylsulfonyl)-6-ethoxypyrazolo[1,5-a]pyridin-3-yl)-3,6-difluoropyridin-2-amine], the IC50 [1] is reported as 2.5 to 20 nM and the IC50 [2] is reported as 250 to 1000 nM.
Work on `CC(C)(C)S(=O)(=O)c1cn2c(-c3cc(F)c(N)nc3F)cnc2cc1OC(F)F` [Example 116, 5-(6-(tert-butylsulfonyl)-7-(difluoromethoxy)imidazo[1,2-a]pyridin-3-yl)-3,6-difluoropyridin-2-amine] yielded an IC50 [1] of 2.5 to 20 nM and an IC50 [2] of over 1000 nM.
`CCOc1cc2ncc(-c3cnc(N)c(F)c3)n2cc1S(=O)(=O)C(C)C` [Example 117, 5-[6-ethoxy-5-(isopropylsulfonyl)-1,3a-diaza-3-indenyl]-3-fluoro-2-pyridylamine] was tested, and the IC50 [1, 3] was over 20 nM and the IC50 [2] was over 1000 nM.
Work on `CCOc1cc2ncc(-c3cc(Cl)c(N)nc3F)n2cc1S(=O)(=O)C(C)C` [Example 118, 3-chloro-5-[6-ethoxy-5-(isopropylsulfonyl)-1,3a-diaza-3-indenyl]-6-fluoro-2-pyridylamine] yielded an IC50 [1] of 2.5 to 20 nM and an IC50 [2] of 250 to 1000 nM.
`CCOc1cc2ncc(-c3cc(F)c(N)nc3F)n2cc1S(=O)(=O)C(C)C` [Example 119, 5-[6-ethoxy-5-(isopropylsulfonyl)-1,3a-diaza-3-indenyl]-3,6-difluoro-2-pyridylamine] was tested, and the IC50 [1] was 2.5 to 20 nM and the IC50 [2] was over 1000 nM.
In the case of `CCOc1cc2ncc(-c3ccc(N)nc3F)n2cc1S(=O)(=O)C(C)C` [Example 120, 5-[6-ethoxy-5-(isopropylsulfonyl)-1,3a-diaza-3-indenyl]-6-fluoro-2-pyridylamine], the IC50 [1, 3] is reported as over 20 nM and the IC50 [2] is reported as over 1000 nM.
With `Nc1nc(F)c(-c2cnc3ccccn23)cc1F` [Example 121, 5-(1,3a-diaza-3-indenyl)-3,6-difluoro-2-pyridylamine] the IC50 [1, 3] was over 20 nM and the IC50 [2] was over 1000 nM.
Work on `COc1cc2ncc(-c3cc(F)c(N)nc3F)n2cc1C1(F)CCN(C)CC1` [Example 122, 3,6-difluoro-5-[5-(4-fluoro-1-methyl-4-piperidyl)-6-methoxy-1,3a-diaza-3-indenyl]-2-pyridylamine] yielded an IC50 [1, 3] of over 20 nM and an IC50 [2] of over 1000 nM.
With `COc1cc2ncc(-c3cc(F)c(N)nc3F)n2cc1S(=O)(=O)C(C)(C)CF` [Example 123, 3,6-difluoro-5-[5-(2-fluoro-1,1-dimethylethylsulfonyl)-6-methoxy-1,3a-diaza-3-indenyl]-2-pyridylamine] the IC50 [1, 3] was over 20 nM and the IC50 [2] was over 1000 nM.
Compound `CCCS(=O)(=O)Nc1cc(-c2cnc3cc(OC)c(S(=O)(=O)C(C)(C)C)cn23)cn(C)c1=O` [Example 124, N-(5-(6-(tert-butylsulfonyl)-7-methoxyimidazo[1,2-a]pyridin-3-yl)-1-methyl-2-oxo-1,2-dihydropyridin-3-yl)propane-1-sulfonamide] has an IC50 [1] of 2.5 to 20 nM and an IC50 [2] of over 1000 nM.

From patent publication US20250346593A1, “IMIDAZO(1,2-1)PYRIDINE DERIVATIVES AS RIPK2 INHIBITORS” (Interline Therapeutics, Inc., priority 2022, published 2025)
